# Measurements reported in US20160166648A1, “Treatment of Multiple Sclerosis With Combination of Laquinimod and Interferon-Beta” (Teva Pharmaceutical Industries, Ltd., priority 2011, published 2016).
# Values joined by “and” are separate entries in the source; they are usually repeats but may differ in a detail not shown here. Identical values can stand only once. Like-named read-outs stand apart in the source and are kept apart here.
# Legend:
# Multiple Sclerosis = conditions: two phase III trials; cited from earlier work
# [1] = in vivo; cited from earlier work
# [2] = test system: MOG induced EAE in C57 BI mice; experiment: Interferon-β s.c. daily alone or in combination with laquinimod in chronic MOG induced EAE; format: in vivo, C57BL/6 mice; conditions: for Activity compared to Laquinimod: Table 6
# [3] = Laquinimod 10 mg/kg oral QD, compared to vehicle
# [4] = Laquinimod 25 mg/kg oral QD, compared to laquinimod (10 mg/kg)
# [5] = Laquinimod 25 mg/kg oral QD, compared to vehicle
compound,measurement,setting,value
CCN(C(=O)c1c(O)c2c(Cl)cccc2n(C)c1=O)c1ccccc1 [Laquinimod],Safety and tolerability profile,Multiple Sclerosis,favorable
same,Oral bioavailability,[1],high
same,Mean Onset,[2],21.4 ± 8.2 days
same,GMS value (group mean score),[2]; Laquinimod 10 mg/kg oral QD,0.8 ± 0.8 and 0.8
same,Incidence,[2]; Laquinimod 10 mg/kg oral QD,8/13
same,MMS value (mean maximal score),[2]; Laquinimod 10 mg/kg oral QD,1.8 ± 1.7
same,Mean Duration,[2]; Laquinimod 10 mg/kg oral QD,9.2 ± 8.3 days
same,Mean Onset,[2]; Laquinimod 10 mg/kg oral QD,21.3 ± 8.2 days
same,Mortality,[2]; Laquinimod 10 mg/kg oral QD,0/13
same,% inhibition 1 (incidence),[2]; [3],38.5%
same,% inhibition 2 (MMS),[2]; [3],43.8%
same,% inhibition 3 (GMS); Activity,[2]; [3],60%
same,% inhibition 3 (GMS); Activity,"[2]; Laquinimod 10 mg/kg oral QD, compared to vehicle, listed as laquinimod",60%
same,GMS value (group mean score),"[2]; Laquinimod 10 mg/kg oral QD, listed as Laquinmod",0.8 ± 0.8
same,Activity compared to Laquinimod,[2]; Laquinimod 10 mg/kg,60%
same,GMS value (group mean score),[2]; Laquinimod 25 mg/kg oral QD,0.3
same,Incidence,[2]; Laquinimod 25 mg/kg oral QD,5/15
same,MMS value (mean maximal score),[2]; Laquinimod 25 mg/kg oral QD,0.8 ± 1.3
same,Mean Duration,[2]; Laquinimod 25 mg/kg oral QD,5.0 ± 7.4 days
same,Mean Onset,[2]; Laquinimod 25 mg/kg oral QD,25.7 ± 7.8 days
same,Mortality,[2]; Laquinimod 25 mg/kg oral QD,0/15
same,% inhibition 1 (incidence),[2]; [4],37.5%
same,% inhibition 2 (MMS),[2]; [4],55.5%
same,% inhibition 3 (GMS),[2]; [4],62.5%
same,% inhibition 1 (incidence),[2]; [5],61.5%
same,% inhibition 2 (MMS),[2]; [5],75.0%
same,% inhibition 3 (GMS); Activity,[2]; [5],85%
same,% inhibition 3 (GMS); Activity,"[2]; Laquinimod 25 mg/kg oral QD, compared to vehicle, listed as Laquiniomd",85.0%
same,GMS value (group mean score),"[2]; Laquinimod 25 mg/kg oral QD, listed as Laquiniomd",0.3 ± 0.5
same,GMS value (group mean score),"[2]; Laquinimod 25 mg/kg oral QD, listed as Laquinmod",0.3 ± 0.5
same,Activity compared to Laquinimod,[2]; Laquinimod 25 mg/kg,85%
same,"Activity compared to interferon-β (500,000 IU/mouse)","[2]; Laquinimod 25 mg/kg, according to GMS",66.7%^
